Measured values as given in patent US20030171377A1, “Antidiabetic agents” (priority 2001, published 2003).
pEC50: −log10 of the molar value.

Tests used:
[1] = system: endogenous nuclear receptors in CV-1 cells; assay: CV-1 Native Receptors Transcription Assay (MKNRCV1), Test C; assay type: cell-based, African green monkey; conditions: for MKNRCV1 % BRL @ 5 μM: 5 μM (stated in the cell); for MKNRCV1 % BRL @ 5 μM / MKNRCV1 % BRL @ 25 μM: percent activity of BRL 49653; for pEC50: Chlorocebus sabaeus, CV-1 cells, 48 hours, unit inferred
[2] = system: 3T3-L1 preadipocytes; assay: 3T3-L1 Adipocyte Differentiation Assay (ADPDIFF), Test A; assay type: cell-based; conditions: BODIPY lipid fluorescence, reported as % of BRL 49653 at 5 μM
Procedure: Cells are replenished with FBS containing media on day 5 of post-drug treatment and incubated for additional 4-6 days. Cells are stained with BODIPY a fluorescent lipophilic stain to quantitate the lipid content of the cells. The assay is optimized for a 96-well plate format. Approximately after 10 days of post-drug treatment, cells are fixed in 3% formalin solution for 15 min followed by staining with BODIPY (80 μg/ml) for 20 min at room temperature. The plate is then put through the CYTOFLUOR instrument to measure the fluorescence of BODIPY (excitation=485/20; emission=530/25).

[3] = system: CV-1 cells (FATP promoter luciferase reporter, 300 nM BRL); assay: ANTCV1 Antagonist Transcription Assay, Test B; assay type: cell-based, African green monkey; conditions: Chlorocebus sabaeus, 25 μM test compound with 300 nM BRL, 48 hrs, % BRL inhibition, read-out: ANTCV1 INHIB @ 25 μM

Structure (SMILES) | MKNRCV1 % BRL @ 5 μM [1] | ADPDIFF % BRL @ 5 μM [2] [% BRL] | MKNRCV1 % BRL @ 25 μM [1] [% BRL] | pEC50 [1] | inhibition at 25 µM [3] [%]
Cc1oc(-c2ccccc2)nc1CCOc1ccc(C[C@@H](C(=O)O)n2cccc2)cc1 | 83 @ 5 μM % BRL | – | – | – | –
Cc1oc(-c2ccccc2)nc1CCOc1ccc(C[C@@H](C(=O)NS(C)(=O)=O)n2cccc2)cc1 | – | 110 | 97 | 5.49 | -30
Cc1oc(-c2ccccc2)nc1CCOc1ccc(C[C@@H](C(=O)NS(=O)(=O)c2ccccc2)n2cccc2)cc1 | – | 90 | 101 | 5.48 | -117
CCCc1nnc([C@H](Cc2ccc(OCCc3nc(-c4ccccc4)oc3C)cc2)n2cccc2)o1 | – | 94 | 0 | – | 84
Cc1oc(-c2ccccc2)nc1CCOc1ccc(C[C@@H](c2nnco2)n2cccc2)cc1 | 37 @ 5 μM % BRL | 45 | – | – | 49
Cc1oc(-c2ccccc2)nc1CCOc1ccc(C[C@@H](C(=O)O)n2ccc(Br)c2)cc1 | – | 84 | 85 | 7.22 | -57.5
Cc1oc(-c2ccccc2)nc1CCOc1ccc(C[C@H](C(=O)O)n2cccc2)cc1 | 87 @ 5 μM % BRL | 96 | – | – | –
Cc1oc(-c2ccccc2)nc1CCOc1ccc(CC(C(=O)O)n2ccc(-c3ccccc3)c2)cc1 (centres unmarked) | – | 125 | 54 | 6.05 | 29
Cc1oc(-c2ccccc2)nc1CCOc1ccc(CC(C(=O)O)n2ccc(C(=O)C3CCCCC3)c2)cc1 (centres unmarked) | – | 82 | 83 | 5.33 | -12
Cc1oc(-c2ccccc2)nc1CCOc1ccc(CC(C(=O)O)n2ccc(C(=O)C(C)C)c2)cc1 (centres unmarked) | – | 120 | 70 | 4.63 | -10
Cc1oc(-c2ccccc2)nc1CCOc1ccc(C[C@@H](C(=O)O)n2c(C)ccc2-c2ccccc2)cc1 | – | 2 | 24 | – | -3
Cc1oc(-c2ccccc2)nc1CCOc1ccc(C[C@@H](C(=O)O)n2c(C)ccc2C)cc1 | – | 26 | 11 | – | 80
CC(=O)c1c(C(C)=O)c(C)n([C@@H](Cc2ccc(OCCc3nc(-c4ccccc4)oc3C)cc2)C(=O)O)c1C | – | 0 | 24 | – | 3
Cc1oc(-c2ccccc2)nc1CC#Cc1ccc(CC(C(=O)O)c2cccnc2)cc1 (centres unmarked) | 49 @ 5 μM % BRL | – | – | 4.47 | -15
Cc1oc(-c2ccccc2)nc1CC#Cc1ccc(CC(C(=O)O)c2ccc(-c3ccccc3)cc2)cc1 (centres unmarked) | 86 @ 5 μM % BRL | – | – | 5.57 | -21
Cc1oc(-c2ccccc2)nc1CCCc1ccc(CC(C(=O)O)c2ccccc2)cc1 (centres unmarked) | – | – | 0.1122 | – | –
Cc1oc(-c2ccccc2)nc1CC#Cc1ccc(CC(C(=O)O)c2cccc(-c3ccccc3)c2)cc1 (centres unmarked) | 48 @ 5 μM % BRL | – | – | – | -3
O=C(O)[C@H](Cc1ccc(OCc2ccccc2F)cc1)n1cccc1 | – | 21 | 92 | 5.85 | -46
COC(=O)[C@H](Cc1ccc(C#CCN(C)c2ccccn2)cc1)n1cccc1 | – | 29 | 38 | 5.25 | 71
O=C(O)[C@H](Cc1ccc(OCCCc2ccncc2)cc1)n1cccc1 | – | 3 | 44 | – | 3
CN(CC#Cc1ccc(CC(C(=O)O)n2cccc2)cc1)c1ccccn1 (centres unmarked) | – | 6 | 71 | – | -32
O=C(O)[C@H](Cc1ccc(OCCc2ccccc2C(F)(F)F)cc1)n1cccc1 | – | 112 | 80 | 6.40 | -27
COC(=O)[C@H](Cc1ccc(C#CCc2nc(-c3ccccc3)oc2C)cc1)n1cccc1 | – | 90 | 123 | 7.00 | -114
CN(C/C=C/c1ccc(C[C@@H](C(=O)O)n2cccc2)cc1)c1ccccn1 | – | 94 | 92 | 6.05 | -36
CN(CCCc1ccc(C[C@@H](C(=O)O)n2cccc2)cc1)c1ccccn1 | – | 113 | 64 | – | –
Cc1oc(-c2ccccc2)nc1C/C=C/c1ccc(C[C@@H](C(=O)O)n2cccc2)cc1 | – | 76 | 94 | – | –

Structure (SMILES) | MKNRCV1 % BRL @ 5 μM [1] | ADPDIFF % BRL @ 5 μM [2] [% BRL] | MKNRCV1 % BRL @ 25 μM [1] [% BRL] | pEC50 [1] | inhibition at 25 µM [3] [%]
O=C(O)[C@H](Cc1ccc(OCCN2CCN(c3ccccc3)CC2)cc1)n1cccc1 | – | 82 | 32 | – | -40
O=C(O)[C@H](Cc1ccc(OCCn2c(-c3ccccc3)nc3ccccc32)cc1)n1cccc1 | – | 19 | 39 | – | -69
COC(=O)[C@H](Cc1ccc(CCCN(C)c2ccccc2)cc1)n1cccc1 | – | 73 | 71 | – | -2
CN(CCOc1ccc(C[C@@H](C(=O)O)n2cccc2)cc1)c1ccnc2cc(Cl)ccc12 | – | 1 | 83 | – | -87
COC(=O)[C@H](Cc1ccc(/C=C/CN(C)c2ccccc2)cc1)n1cccc1 | – | 110 | 96 | 6.15 | 2
CN(C/C=C/c1ccc(C[C@@H](C(=O)O)n2cccc2)cc1)c1ccccc1 | – | – | 79 | 5.77 | -29
Cc1oc(-c2ccccc2)nc1CCNc1ccc(C[C@@H](C(=O)O)n2cccc2)cc1 | – | – | 157 | – | –
COC(=O)[C@H](Cc1ccc(/C=C/CN2CCC(c3ccccc3)CC2)cc1)n1cccc1 | – | 32 | 47 | – | 25
CC(=O)c1cccn1[C@@H](Cc1ccc(OCc2ccccc2F)cc1)C(=O)O | – | 3 | 25 | – | -40
Cc1ccc(C)n1[C@@H](Cc1ccc(OCc2ccccc2F)cc1)C(=O)O | – | 2 | 34 | – | –
Cc1ccc(-c2ccccc2)n1[C@@H](Cc1ccc(OCc2ccccc2F)cc1)C(=O)O | – | 2 | 30 | – | -44
O=C(O)[C@H](Cc1ccc(OCc2ccccc2F)cc1)n1cccc1C(=O)C(F)(F)F | – | 14 | 18 | – | 28
CN(CCOc1ccc(CC(C(=O)O)n2ccc(C(=O)C3CCCCC3)c2)cc1)c1nc2ccccc2o1 (centres unmarked) | – | 112 | 65 | 4.95 | 4
O=C(c1ccn(C(Cc2ccc(OCc3ccccc3F)cc2)C(=O)O)c1)C1CCCCC1 (centres unmarked) | – | 12 | 28 | – | 1
CN(CCOc1ccc(CC(C(=O)O)n2ccc(-c3ccccc3)c2)cc1)c1nc2ccccc2o1 (centres unmarked) | – | 113 | 59 | – | -41
Cc1cc(OCCc2nc(-c3ccccc3)oc2C)ccc1CC(C(=O)O)c1ccccc1 (centres unmarked) | – | – | – | 6.00 | –
Cc1nc(-c2ccc(C(F)(F)F)cc2)sc1CSc1ccc(OCC(=O)O)cc1 | – | – | 70 | – | -58
Cc1oc(-c2ccccc2)nc1CCOc1ccc(CC[C@@H](C(=O)O)n2cccc2)cc1 | 82 @ 5 μM % BRL | – | – | 5.89 | 62
Cc1oc(-c2ccccc2)nc1CCOc1ccc([C@@H](C(=O)O)n2cccc2)cc1 | 47 % BRL | – | 57 | 5.44 | 39
Cc1oc(-c2ccccc2)nc1CCOc1ccc([C@@H](C(=O)O)n2cccc2C(=O)c2ccccc2)cc1 | 39 % BRL | – | 58 | – | -5
Cc1cc(-c2cc(O)c(Sc3cccc(C(=O)O)c3)oc2=O)ccc1OCc1ccccc1 | 26 @ 5 μM % BRL | – | – | – | -29
Cc1oc(-c2ccccc2)nc1CCOc1ccc(CC(C(=O)O)c2nc(-c3ccccc3)oc2C)cc1 (centres unmarked) [drawing 261] | 110 @ 5 μM % BRL | – | – | – | 18
Cc1oc(-c2ccccc2)nc1CCOc1ccc(CC(C(=O)O)c2ccccc2)cn1 (centres unmarked) [drawing 262] | – | – | – | 5.92 | –
Cc1oc(-c2ccccc2)nc1CCC(=O)c1ccc(CC(C(=O)O)n2cccc2)cc1 (centres unmarked) [drawing 276] | – | 3 | – | – | –
Cc1oc(-c2ccccc2)nc1CCOc1ccc(CC(C(=O)O)c2ccccc2)cn1 (centres unmarked) [drawing 309] | 75 @ 5 μM % BRL | – | – | – | -58
